Experimental data: PubChem BioAssay AID1963433 (Molecular Pharmacology Branch, DTP, NCI, 2024)

Test system: 772245-204-R-J1-PDC complex spheroid growth
Assay: Anticancer human tumor 772245-204-R-J1-PDC patient-derived rhabdomyosarcoma cell line growth inhibition [Asc]
Settings: for IC50: curve of first compound; for viability, T/C: stronger effect = lower value
Outline: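 Complex solid-tumor spheroids incorporating human endothelial and mesenchymal stem cells received single agents or combinations over half-log dilution ranges anchored to clinical Cmax.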
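Note: compound exposure lasted seven days.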
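Throughout, for viability, T/C: 100% = DMSO vehicle control viability.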

For `CCN1CCN(Cc2ccc(Nc3ncc(F)c(-c4cc(F)c5nc(C)n(C(C)C)c5c4)n3)nc2)CC1` + Cc1c(S(C)(=O)=O)c(-c2cc(F)cc(N3CCN(c4ccc(NS(=O)(=O)c5ccc(NC(CCN6CCC(C(=O)OCCCP(=O)(O)O)CC6)CSc6ccccc6)c(S(=O)(=O)C(F)(F)F)c5)cc4)CC3)c2)c(-c2ccc(Cl)cc2)n1C(C)C, which IC50 (second compound 0.1 µM) is on record?
The IC50 was > 1000 nM.

And the IC50 (second compound 0.316 µM)?
The IC50 was 436 nM.

What about the IC50 (second compound 1 µM) of the same compound?
The IC50 was 23.9 nM.

What about the IC50 (second compound 3.16 µM) of the same compound?
The IC50 was < 3.16 nM.

What about the IC50 (second compound 10 µM) of the same compound?
The IC50 was < 3.16 nM.

And the viability, T/C (second compound 0.1 µM, first compound 0.00316 µM)?
The viability, T/C was 77.4%.

What about the viability, T/C (second compound 0.1 µM, first compound 0.01 µM) of the same compound?
The viability, T/C was 78.2%.

What about the viability, T/C (second compound 0.1 µM, first compound 0.0316 µM) of the same compound?
Its viability, T/C is 77.3%.

And the viability, T/C (second compound 0.1 µM, first compound 0.1 µM)?
Its viability, T/C is 82.1%.

And the viability, T/C (second compound 0.1 µM, first compound 0.316 µM)?
The viability, T/C was 83.4%.

What about the viability, T/C (second compound 0.1 µM, first compound 1 µM) of the same compound?
Its viability, T/C is 74.7%.

And the viability, T/C (second compound 0.316 µM, first compound 0.00316 µM)?
The viability, T/C was 68.9%.

And the viability, T/C (second compound 0.316 µM, first compound 0.01 µM)?
Its viability, T/C is 58.1%.

What about the viability, T/C (second compound 0.316 µM, first compound 0.0316 µM) of the same compound?
The viability, T/C was 60.5%.

And the viability, T/C (second compound 0.316 µM, first compound 0.1 µM)?
Its viability, T/C is 58.5%.

And the viability, T/C (second compound 0.316 µM, first compound 0.316 µM)?
Its viability, T/C is 51.7%.

And the viability, T/C (second compound 0.316 µM, first compound 1 µM)?
Its viability, T/C is 45.5%.

What about the viability, T/C (second compound 1 µM, first compound 0.00316 µM) of the same compound?
Its viability, T/C is 53.9%.

What about the viability, T/C (second compound 1 µM, first compound 0.01 µM) of the same compound?
The viability, T/C was 52.9%.

What about the viability, T/C (second compound 1 µM, first compound 0.0316 µM) of the same compound?
Its viability, T/C is 50%.

What about the viability, T/C (second compound 1 µM, first compound 0.1 µM) of the same compound?
The viability, T/C was 37.7%.

And the viability, T/C (second compound 1 µM, first compound 0.316 µM)?
The viability, T/C was 22.8%.

What about the viability, T/C (second compound 1 µM, first compound 1 µM) of the same compound?
The viability, T/C was 9.85%.

What about the viability, T/C (second compound 3.16 µM, first compound 0.00316 µM) of the same compound?
Its viability, T/C is 49%.

What about the viability, T/C (second compound 3.16 µM, first compound 0.01 µM) of the same compound?
The viability, T/C was 42.5%.

And the viability, T/C (second compound 3.16 µM, first compound 0.0316 µM)?
The viability, T/C was 42%.

What about the viability, T/C (second compound 3.16 µM, first compound 0.1 µM) of the same compound?
The viability, T/C was 32.6%.

What about the viability, T/C (second compound 3.16 µM, first compound 0.316 µM) of the same compound?
Its viability, T/C is 15.1%.

What about the viability, T/C (second compound 3.16 µM, first compound 1 µM) of the same compound?
Its viability, T/C is 5.17%.

And the viability, T/C (second compound 10 µM, first compound 0.00316 µM)?
Its viability, T/C is 49.7%.

And the viability, T/C (second compound 10 µM, first compound 0.01 µM)?
Its viability, T/C is 42.3%.

What about the viability, T/C (second compound 10 µM, first compound 0.0316 µM) of the same compound?
The viability, T/C was 41%.

What about the viability, T/C (second compound 10 µM, first compound 0.1 µM) of the same compound?
The viability, T/C was 29.9%.

And the viability, T/C (second compound 10 µM, first compound 0.316 µM)?
The viability, T/C was 15.5%.

And the viability, T/C (second compound 10 µM, first compound 1 µM)?
Its viability, T/C is 3.23%.

With `C=C(F)C(=O)N1CCN(c2nc(OCC3CCCN3C)nc3c2CCN(c2cccc4cccc(Cl)c24)C3)CC1CC#N` (stereo not given) + CCN1C(C(=O)NC23CCC(C(=O)O)(CC2)CC3)C(c2cccc(Cl)c2F)C2(C(=O)Nc3cc(Cl)ccc32)C12CCCCC2 as the compound, how does the IC50 (second compound 0.03 µM) read?
The IC50 was 3920 nM.

And the IC50 (second compound 0.0949 µM)?
Its IC50 is 3940 nM.

What about the IC50 (second compound 0.3 µM) of the same compound?
Its IC50 is 4430 nM.

What about the IC50 (second compound 0.949 µM) of the same compound?
The IC50 was 3290 nM.

What about the IC50 (second compound 3 µM) of the same compound?
Its IC50 is 2110 nM.

And the viability, T/C (second compound 0.03 µM, first compound 0.0316 µM)?
Its viability, T/C is 94.9%.

And the viability, T/C (second compound 0.03 µM, first compound 0.1 µM)?
The viability, T/C was 101%.

What about the viability, T/C (second compound 0.03 µM, first compound 0.316 µM) of the same compound?
Its viability, T/C is 83.1%.

What about the viability, T/C (second compound 0.03 µM, first compound 1 µM) of the same compound?
Its viability, T/C is 97.2%.

And the viability, T/C (second compound 0.03 µM, first compound 3.16 µM)?
Its viability, T/C is 61.6%.

What about the viability, T/C (second compound 0.03 µM, first compound 10 µM) of the same compound?
Its viability, T/C is 0.2%.

What about the viability, T/C (second compound 0.0949 µM, first compound 0.0316 µM) of the same compound?
Its viability, T/C is 93.7%.

And the viability, T/C (second compound 0.0949 µM, first compound 0.1 µM)?
The viability, T/C was 94.5%.

And the viability, T/C (second compound 0.0949 µM, first compound 0.316 µM)?
The viability, T/C was 85.3%.

And the viability, T/C (second compound 0.0949 µM, first compound 1 µM)?
Its viability, T/C is 89.6%.

What about the viability, T/C (second compound 0.0949 µM, first compound 3.16 µM) of the same compound?
The viability, T/C was 61.7%.

What about the viability, T/C (second compound 0.0949 µM, first compound 10 µM) of the same compound?
The viability, T/C was 0.17%.

And the viability, T/C (second compound 0.3 µM, first compound 0.0316 µM)?
Its viability, T/C is 95.8%.

And the viability, T/C (second compound 0.3 µM, first compound 0.1 µM)?
Its viability, T/C is 96.7%.

What about the viability, T/C (second compound 0.3 µM, first compound 0.316 µM) of the same compound?
Its viability, T/C is 85.6%.

And the viability, T/C (second compound 0.3 µM, first compound 1 µM)?
The viability, T/C was 87%.

And the viability, T/C (second compound 0.3 µM, first compound 3.16 µM)?
The viability, T/C was 71.8%.

And the viability, T/C (second compound 0.3 µM, first compound 10 µM)?
Its viability, T/C is 0.18%.

What about the viability, T/C (second compound 0.949 µM, first compound 0.0316 µM) of the same compound?
The viability, T/C was 92.3%.

And the viability, T/C (second compound 0.949 µM, first compound 0.1 µM)?
Its viability, T/C is 83.7%.

And the viability, T/C (second compound 0.949 µM, first compound 0.316 µM)?
Its viability, T/C is 91.6%.

And the viability, T/C (second compound 0.949 µM, first compound 1 µM)?
Its viability, T/C is 96.7%.

And the viability, T/C (second compound 0.949 µM, first compound 3.16 µM)?
The viability, T/C was 51.9%.

What about the viability, T/C (second compound 0.949 µM, first compound 10 µM) of the same compound?
Its viability, T/C is 0.16%.

What about the viability, T/C (second compound 3 µM, first compound 0.0316 µM) of the same compound?
Its viability, T/C is 72.7%.

What about the viability, T/C (second compound 3 µM, first compound 0.1 µM) of the same compound?
The viability, T/C was 79.8%.

And the viability, T/C (second compound 3 µM, first compound 0.316 µM)?
Its viability, T/C is 72.5%.

And the viability, T/C (second compound 3 µM, first compound 1 µM)?
The viability, T/C was 73%.

What about the viability, T/C (second compound 3 µM, first compound 3.16 µM) of the same compound?
Its viability, T/C is 37.5%.

And the viability, T/C (second compound 3 µM, first compound 10 µM)?
Its viability, T/C is 0.38%.
